Assay results published in patent publication US10093670B2, “Azabenzimidazole derivative having AMPK-activating activity” (Shionogi & Co., Ltd., priority 2011, dated 2018).

Tests used:
[1] = target: T1, human AMPK α1β1γ1 enzyme (Homo sapiens, UniProt Q13131+Q9Y478); assay: Evaluation of AMPK activator, Test Example 1 (mobility-shift kinase assay, FL-Peptide 7); assay type: biochemical; settings: for EC150 (compound concentration showing 150% relative to the control (100%)): human AMPK α1β1γ1, 25° C., 2 hours, 0.2 mM ATP final; for Emax / Emax (maximum rate of increase in activity within the measurement range): human AMPK α1β1γ1, relative to control (100%); for Emax: read-out: Emax (maximum rate of increase in activity within the measurement range)
T1 construct: purchased Carna Biosciences, Inc
Protocol: The obtained liquid was left to stand for 10 minutes.
The obtained liquid was allowed to react at 25° C. for 2 hours, and 10 μl of 20 mM EDTA was then added thereto to stop the reaction.
(§1) To detect phosphorylated fluorescent substrates, the reaction liquid was applied to a measuring device, LabChip EZ Reader II manufactured by Caliper Life Science, Inc., for detecting fluorescence by using differences in mobility due to differences in charge. The setting conditions for the device were pressure, −1.5 PSI; upstream voltage, −2250 V; downstream voltage, −400 V; post sample buffer sip time, 40 seconds; final delay, 120 seconds; and peak order, Product First.
(§2) A conversion rate was calculated from the peak heights of the resulting substrate and product. The conversion rate when not containing a compound was used as a control, and a concentration dependent curve was made by plotting the rate of increase in activity to the control at each concentration of a compound.

[2] = target: T2, Human AMPK α2β2γ1 (Homo sapiens, UniProt O43741+P54646); assay: Evaluation of AMPK activator, Test Example 2 (CaMKK2-phosphorylated enzyme, mobility-shift kinase assay); assay type: biochemical; settings: for EC150 (compound concentration showing 150% relative to the control (100%)): human AMPK α2β2γ1 phosphorylated by CaMKK2, 25° C., 2 hours; for Emax: human AMPK α2β2γ1 phosphorylated by CaMKK2, relative to control (100%), read-out: Emax (maximum rate of increase in activity within the measurement range)
T2 construct: The full length cDNAs of human AMPK β2 (NM_005399.3) and human AMPK α2 (NM_006252.3) were inserted; the full length cDNA of human AMPK γ1 (NM_002733.3) had been inserted into pET28b(+); 6xHis (N); made in house; host or cells: Escherichia coli BL21 CodonPlus (DE3)-RIL (AMPK); BL21 Star (DE3) (CaMKKβ)
Protocol: The full length cDNAs of human AMPK β2 (NM_005399.3) and human AMPK α2 (NM_006252.3) were inserted into the MCS1 and MCS2 of the pETDuet-1 vector to prepare a human AMPK β2 and human AMPK α2 (6× His tag at the 5′ terminus) expressing plasmid. The plasmid was contransfected with an expression plasmid, in which the full length cDNA of human AMPK γ1 (NM_002733.3) had been inserted into pET28b(+), into BL21 CodonPlus (DE3)-RIL to obtain an expression strain. The expression strain was cultured in TB medium, followed by induction with 0.5 mM IPTG, and cultured at 25° C. for 3 hours and then harvested. After ultrasonication, supernatant was collected and applied to Histrap FF column (GE) and RESOUECE Q column (GE) to prepare 12.5 mg of purified sample containing three types of subunit from 1.8 L of broth.
An expression vector, in which the full length cDNA of human CAMKK β (NM_172226.1) had been inserted into pGEX-6P-3, was transfected into BL21 Star (DE3). The expression strain was cultured in TB medium, followed by induction with 0.5 mM IPTG, and cultured at 25° C. for 3 hours and then harvested. After ultrasonication, supernatant was collected and applied to GSTrap FF column (GE) to prepare 14 mg of GST-fused CAMKK β from 720 ml of broth.
Evaluation Method of an Activator for AMP-activated Protein Kinase (AMPK) (Test Example 2)
Thus, phosphorylation treatment was carried out as pretreatment.
Human AMPK α2β2γ1 in an amount to give a conversion rate of approximately 10% by reaction for 2 hours, and CaMKK2 in an amount capable of sufficiently imparting activity to AMPK for one hour were mixed in a buffer solution consisting of a 50 mM HEPES-NaOH buffer solution (pH 7.0), 100 mM NaCl, 5 mM magnesium chloride, 0.1% bovine serum albumin, 0.2 mM sodium orthovanadate(V), 1 mM ethylene glycol-bis(2-aminoethyl ether)-N,N,N′,N′-tetraacetic acid (EGTA), 5 mM disodium β-glycerophosphate, 1 mM dithiothreitol and 0.2 mM ATP, and the obtained liquid was left to stand at 25° C. for 1 to 1.5 hours to sufficiently phosphorylate AMPK.
After that, to the enzyme liquid, which had been subjected to phosphorylation treatment, a compound dissolved in DMSO was added so as to have a 1% DMSO concentration. The obtained liquid was left to stand for 10 minutes.
To the liquid, a substrate solution consisting of a 50 mM HEPES-NaOH buffer solution (pH 7.0), 100 mM NaCl, 10 mM magnesium chloride, 0.1% bovine serum albumin, 0.2 mM sodium orthovanadate(V), 1 mM ethylene glycol-bis(2-aminoethyl ether)-N,N,N′,N′-tetraacetic acid (EGTA), 5 mM disodium β-glycerophosphate, 2 mM dithiothreitol, 0.4 mM ATP and 3 μM FL-Peptide 7 (manufactured by Caliper Life Sciences, Inc.) was added in equal amount (10 μl in total). The obtained liquid was allowed to react at 25° C. for 2 hours, and 10 μl of 20 mM EDTA was then added thereto to stop the reaction.
as §1, §2

T2 sequence (P54646 whole entry): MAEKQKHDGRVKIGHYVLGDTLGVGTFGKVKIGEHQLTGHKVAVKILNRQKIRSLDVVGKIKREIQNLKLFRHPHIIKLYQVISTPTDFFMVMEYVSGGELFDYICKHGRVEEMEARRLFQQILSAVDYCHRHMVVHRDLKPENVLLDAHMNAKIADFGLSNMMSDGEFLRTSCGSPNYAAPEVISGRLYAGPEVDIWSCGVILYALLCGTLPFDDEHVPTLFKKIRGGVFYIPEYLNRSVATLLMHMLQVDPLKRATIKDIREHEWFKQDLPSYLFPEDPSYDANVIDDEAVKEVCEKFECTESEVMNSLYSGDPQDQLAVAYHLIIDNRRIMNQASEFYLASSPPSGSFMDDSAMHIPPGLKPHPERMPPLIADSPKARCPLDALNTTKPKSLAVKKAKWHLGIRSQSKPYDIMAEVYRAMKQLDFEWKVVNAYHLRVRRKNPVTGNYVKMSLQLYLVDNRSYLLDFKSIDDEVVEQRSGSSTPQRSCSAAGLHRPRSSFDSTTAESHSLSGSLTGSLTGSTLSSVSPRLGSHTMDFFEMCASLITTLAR
T2 sequence (O43741 whole entry): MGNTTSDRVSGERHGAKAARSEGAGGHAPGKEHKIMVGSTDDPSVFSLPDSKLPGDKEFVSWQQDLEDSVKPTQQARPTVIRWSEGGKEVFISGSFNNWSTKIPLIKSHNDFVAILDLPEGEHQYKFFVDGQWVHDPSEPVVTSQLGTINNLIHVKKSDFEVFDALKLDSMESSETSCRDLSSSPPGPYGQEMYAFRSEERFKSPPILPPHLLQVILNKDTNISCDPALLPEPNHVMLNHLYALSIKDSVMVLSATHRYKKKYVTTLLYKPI
T2 sequence (P54619 whole entry partner): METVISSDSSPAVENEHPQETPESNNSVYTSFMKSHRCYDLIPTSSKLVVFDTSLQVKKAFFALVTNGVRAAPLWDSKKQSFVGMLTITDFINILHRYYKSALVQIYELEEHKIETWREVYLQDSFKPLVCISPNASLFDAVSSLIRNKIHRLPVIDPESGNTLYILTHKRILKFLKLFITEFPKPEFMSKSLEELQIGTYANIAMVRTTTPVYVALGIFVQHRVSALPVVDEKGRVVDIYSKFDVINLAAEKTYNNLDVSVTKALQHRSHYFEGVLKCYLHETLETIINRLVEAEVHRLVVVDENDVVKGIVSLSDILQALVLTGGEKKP
T1 sequence (Q13131 10-559 limits assumed): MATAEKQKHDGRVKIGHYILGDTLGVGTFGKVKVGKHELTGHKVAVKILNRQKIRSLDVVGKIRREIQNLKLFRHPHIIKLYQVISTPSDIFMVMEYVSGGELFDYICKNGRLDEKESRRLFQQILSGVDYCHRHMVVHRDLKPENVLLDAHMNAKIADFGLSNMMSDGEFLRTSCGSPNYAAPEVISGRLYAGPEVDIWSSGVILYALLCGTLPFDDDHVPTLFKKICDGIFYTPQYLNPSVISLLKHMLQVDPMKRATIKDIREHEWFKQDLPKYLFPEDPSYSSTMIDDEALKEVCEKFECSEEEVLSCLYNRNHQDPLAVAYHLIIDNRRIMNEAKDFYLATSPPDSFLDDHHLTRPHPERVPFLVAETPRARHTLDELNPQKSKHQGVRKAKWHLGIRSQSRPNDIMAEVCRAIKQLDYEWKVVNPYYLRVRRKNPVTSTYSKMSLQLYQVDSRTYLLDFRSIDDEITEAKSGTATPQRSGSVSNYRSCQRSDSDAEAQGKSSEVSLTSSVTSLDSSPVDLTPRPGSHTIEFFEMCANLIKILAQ
T1 sequence (Q9Y478 whole entry): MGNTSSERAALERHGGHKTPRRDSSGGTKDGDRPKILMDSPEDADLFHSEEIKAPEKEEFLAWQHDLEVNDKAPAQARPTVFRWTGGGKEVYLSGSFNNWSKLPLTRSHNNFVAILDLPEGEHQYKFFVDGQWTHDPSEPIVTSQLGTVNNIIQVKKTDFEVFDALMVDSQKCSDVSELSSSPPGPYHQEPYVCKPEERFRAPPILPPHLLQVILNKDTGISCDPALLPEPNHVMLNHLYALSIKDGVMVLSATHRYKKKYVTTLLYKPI
T1 sequence (P54619 whole entry partner): as the sequence (P54619 whole entry partner) above

SMILES: CC(=O)NC1CC=C(c2ccc(-c3nc4nc(O[C@H]5CC[C@H](CC(=O)O)CC5)[nH]c4cc3Cl)cc2)CC1 (stereo partly drawn) [Compound I-2-76]
- EC150 (compound concentration showing 150% relative to the control (100%)) [1]: 14 nM
- Emax [1]: 232%
- EC150 (compound concentration showing 150% relative to the control (100%)) [2]: 85 nM
- Emax [2]: 175%

SMILES: CC(Oc1nc2nc(-c3ccc(N4CCCC4)cc3)c(Cl)cc2[nH]1)c1cc(O)no1 (stereo not drawn) [Compound I-2-112]
- EC150 (compound concentration showing 150% relative to the control (100%)) [1]: 25 nM
- Emax [1]: 246%
- EC150 (compound concentration showing 150% relative to the control (100%)) [2]: 74 nM
- Emax [2]: 269%

SMILES: CN(C)C(=O)[C@H]1C[C@@H](Oc2nc3nc(-c4ccc(C5=CCC(C(=O)O)CC5)cc4)c(Cl)cc3[nH]2)C1 (stereo partly drawn) [Compound I-2-129]
- Emax [1]: 276%
- Emax [2]: 339%

SMILES: CC(C)(C(=O)O)[C@]1(O)CC[C@@H](Oc2nc3nc(-c4ccc(N5CCOCC5)cc4)c(Cl)cc3[nH]2)CC1 [Compound I-3-24]
- EC150 (compound concentration showing 150% relative to the control (100%)) [1]: 0.79 nM
- Emax (maximum rate of increase in activity within the measurement range) [1]: 318%
- EC150 (compound concentration showing 150% relative to the control (100%)) [2]: 11 nM
- Emax [2]: 271%

SMILES: CC(C)(C(=O)O)[C@]1(O)CC[C@@H](Oc2nc3nc(-c4ccc(N5CCCC5)cc4)c(Cl)cc3[nH]2)CC1 [Compound I-3-30]
- EC150 (compound concentration showing 150% relative to the control (100%)) [1]: 0.49 nM
- Emax [1]: 345%
- EC150 (compound concentration showing 150% relative to the control (100%)) [2]: 12 nM
- Emax [2]: 271%

SMILES: CC(C)(C(=O)O)C1CCC(Oc2nc3nc(-c4ccc(C5(CO)CC5)cc4)c(Cl)cc3[nH]2)CC1 (stereo not drawn) [Compound I-3-37]
- EC150 (compound concentration showing 150% relative to the control (100%)) [1]: 5.6 nM
- Emax [1]: 257%
- EC150 (compound concentration showing 150% relative to the control (100%)) [2]: 5 nM
- Emax [2]: 237%

SMILES: CC(C)(C(=O)O)[C@H]1CC[C@H](Oc2nc3nc(-c4c(F)cc(N5CCOCC5)cc4F)ccc3[nH]2)CC1 [Compound I-3-40]
- EC150 (compound concentration showing 150% relative to the control (100%)) [1]: 23 nM
- Emax [1]: 244%
- EC150 (compound concentration showing 150% relative to the control (100%)) [2]: 69 nM
- Emax [2]: 228%

SMILES: CN(C)C(=O)[C@]1(O)CC[C@@H](Oc2nc3nc(-c4ccc(C5=CCC(C(=O)O)CC5)cc4)c(Cl)cc3[nH]2)CC1 (stereo partly drawn) [Compound I-3-54]
- EC150 (compound concentration showing 150% relative to the control (100%)) [1]: 270 nM
- Emax [1]: 201%
- EC150 (compound concentration showing 150% relative to the control (100%)) [2]: 2.2 nM
- Emax [2]: 373%

SMILES: CC(C)(C(=O)O)[C@]1(O)CC[C@@H](Oc2nc3nc(-c4ccc(-c5ccccc5)cc4)c(Cl)cc3[nH]2)CC1 [Compound I-3-66]
- EC150 (compound concentration showing 150% relative to the control (100%)) [1]: 3.4 nM
- Emax [1]: 389%

SMILES: CCC(Oc1nc2nc(-c3ccc(N4CCCC4)cc3)c(Cl)cc2[nH]1)c1cc(O)no1 (stereo not drawn) [Compound I-3-69]
- EC150 (compound concentration showing 150% relative to the control (100%)) [1]: 60 nM
- Emax [1]: 259%

SMILES: O=C(O)[C@]1(O)CC[C@@H](Oc2nc3nc(-c4ccc(N5CCOCC5)cc4)c(Cl)cc3[nH]2)CC1 [Compound I-3-75]
- EC150 (compound concentration showing 150% relative to the control (100%)) [1]: 47 nM
- Emax [1]: 236%

SMILES: CC(C)(C(=O)O)[C@]1(O)CC[C@@H](Oc2nc3nc(-c4ccc(N5CCOCC5)cc4)c(Cl)cc3[nH]2)CC1 [Compound I-3-83]
- EC150 (compound concentration showing 150% relative to the control (100%)) [1]: 24 nM
- Emax (maximum rate of increase in activity within the measurement range) [1]: 278%

SMILES: CN(C)C(=O)N1CC=C(c2ccc(-c3nc4nc(O[C@H]5CC[C@H](C(C)(C)C(=O)O)CC5)[nH]c4cc3Cl)cc2)CC1 [Compound I-3-85]
- EC150 (compound concentration showing 150% relative to the control (100%)) [1]: 4.9 nM
- Emax [1]: 276%

SMILES: CC(=O)NC1CC=C(c2ccc(-c3nc4nc(O[C@H]5CC[C@H](C(C)(C)CO)CC5)[nH]c4cc3Cl)cc2)CC1 (stereo partly drawn) [Compound I-3-86]
- EC150 (compound concentration showing 150% relative to the control (100%)) [1]: 23 nM
- Emax [1]: 277%
- EC150 (compound concentration showing 150% relative to the control (100%)) [2]: 11 nM
- Emax [2]: 259%

SMILES: CC(C)(CO)C1CCC(Oc2nc3nc(-c4ccc(N5CCOCC5)cc4)c(Cl)cc3[nH]2)CC1 (stereo not drawn) [Compound I-3-89]
- Emax [1]: 236%

SMILES: CC(C)(C(=O)O)[C@H]1CC[C@H](Oc2nc3nc(-c4ccc(C5=CCN(C(=O)CO)CC5)cc4)c(Cl)cc3[nH]2)CC1 [Compound I-3-90]
- EC150 (compound concentration showing 150% relative to the control (100%)) [1]: 17 nM
- Emax [1]: 320%
- EC150 (compound concentration showing 150% relative to the control (100%)) [2]: 21 nM
- Emax [2]: 274%

SMILES: CN(C)C(=O)[C@H]1C[C@@H](Oc2nc3nc(-c4ccc(-c5ccc(C(=O)O)cc5)cc4)c(Cl)cc3[nH]2)C1 [Compound I-3-91]
- EC150 (compound concentration showing 150% relative to the control (100%)) [1]: 21 nM
- Emax [1]: 287%

SMILES: CC(=O)N1CC=C(c2ccc(-c3nc4nc(OC5CCC(C(C)(C)CO)CC5)[nH]c4cc3Cl)cc2)CC1 (stereo not drawn) [Compound I-3-92]
- EC150 (compound concentration showing 150% relative to the control (100%)) [1]: 23 nM
- Emax [1]: 303%

SMILES: CC(C)(C(=O)O)C1CCC(Oc2nc3nc(-c4ccc(C5=CCOCC5)cc4)c(Cl)cc3[nH]2)CC1 (stereo not drawn) [Compound I-3-93]
- EC150 (compound concentration showing 150% relative to the control (100%)) [1]: 9.6 nM
- Emax [1]: 301%

SMILES: CC(C)(C(=O)O)[C@H]1CC[C@H](Oc2nc3nc(-c4ccc(-c5ccccc5O)cc4)c(Cl)cc3[nH]2)CC1 [Compound I-3-97]
- EC150 (compound concentration showing 150% relative to the control (100%)) [1]: 0.68 nM
- Emax [1]: 343%

SMILES: O=C(c1ccc(-c2ccc(-c3nc4nc(O[C@H]5CC[C@H](C(=O)O)CC5)[nH]c4cc3Cl)cc2)cc1)N1CCC(O)CC1 [Compound I-3-104]
- EC150 (compound concentration showing 150% relative to the control (100%)) [1]: 21 nM
- Emax [1]: 203%

SMILES: CC(C)(C(=O)O)[C@H]1CC[C@H](Oc2nc3nc(-c4ccc(-c5ccc(C(=O)N6CCC(O)CC6)cc5)cc4)c(Cl)cc3[nH]2)CC1 [Compound I-3-106]
- EC150 (compound concentration showing 150% relative to the control (100%)) [1]: 9.1 nM
- Emax [1]: 311%

SMILES: CC(C)(C(=O)O)[C@H]1CC[C@H](Oc2nc3nc(-c4ccc(-c5ccc(C(=O)N6CCOCC6)cc5)cc4)c(Cl)cc3[nH]2)CC1 [Compound I-3-108]
- EC150 (compound concentration showing 150% relative to the control (100%)) [1]: 8.2 nM
- Emax [1]: 291%

SMILES: O=C(O)c1ccc(-c2ccc(-c3nc4nc(O[C@H]5C[C@@H](C(=O)N6CC(O)C6)C5)[nH]c4cc3Cl)cc2)cc1 [Compound I-3-115]
- EC150 (compound concentration showing 150% relative to the control (100%)) [1]: 23 nM
- Emax [1]: 260%

SMILES: CC(C)(C(=O)O)[C@H]1CC[C@H](Oc2nc3nc(-c4ccc(-c5ccc(C(N)=O)cc5)cc4)c(Cl)cc3[nH]2)CC1 [Compound I-3-119]
- EC150 (compound concentration showing 150% relative to the control (100%)) [1]: 1.6 nM
- Emax [1]: 300%

SMILES: O=C(O)C1([C@]2(O)CC[C@@H](Oc3nc4nc(-c5ccc(N6CCOCC6)cc5)c(Cl)cc4[nH]3)CC2)CCC1 [Compound I-3-123]
- EC150 (compound concentration showing 150% relative to the control (100%)) [1]: 18 nM
- Emax [1]: 243%
